# Experiments:
# [1] = target: T1, 17-β-hydroxysteroid dehydrogenase (Hsd4A) (Rhodococcus jostii, UniProt Q0S7K5); experiment: LC-MS/MS of product; NADH formation at […] nm; assay type: biochemical; conditions: 1 mM NAD+; substrate made in situ from cholyl-enoyl-CoA by CtShy–CtSal; 100 mM HEPES pH 7.5, 25 °C or 50 mM ammonium acetate pH 7.4
# T1 construct: isolated enzyme; construct not described in main text
# T1 sequence (Q0S7K5 1-305): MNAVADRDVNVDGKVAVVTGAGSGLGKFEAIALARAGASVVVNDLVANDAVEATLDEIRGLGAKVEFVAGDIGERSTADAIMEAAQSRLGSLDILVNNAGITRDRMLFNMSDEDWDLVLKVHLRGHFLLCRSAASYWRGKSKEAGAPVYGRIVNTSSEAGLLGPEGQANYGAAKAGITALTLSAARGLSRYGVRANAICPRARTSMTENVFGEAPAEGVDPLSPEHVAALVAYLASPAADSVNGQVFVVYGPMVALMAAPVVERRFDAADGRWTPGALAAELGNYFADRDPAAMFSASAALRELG
# [2] = target: T2, CtShy–CtSal complex (CtSal steroid aldolase activity) (Comamonas testosteroni, UniProt B7X4S8); experiment: CtSad-coupled NADH formation at […] nm; assay type: biochemical; conditions: apparent; 1 mM NAD+ and 7 nM CtSad for coupling, 100 mM HEPES pH 7.5, 25 °C
# T2 construct: gene CtesDRAFT_PD3654; full-length CtShy–CtSal complex co-expressed in E. coli BL21 LOBSTR, His-tag purified; heterotetramer, 160 kDa by SEC (CtShy 35 kDa, CtSal 46 kDa); with Steroid hydratase Shy (DUF35/OB-fold and MaoC domain-containing protein)
# T2 sequence (B7X4S8 1-404): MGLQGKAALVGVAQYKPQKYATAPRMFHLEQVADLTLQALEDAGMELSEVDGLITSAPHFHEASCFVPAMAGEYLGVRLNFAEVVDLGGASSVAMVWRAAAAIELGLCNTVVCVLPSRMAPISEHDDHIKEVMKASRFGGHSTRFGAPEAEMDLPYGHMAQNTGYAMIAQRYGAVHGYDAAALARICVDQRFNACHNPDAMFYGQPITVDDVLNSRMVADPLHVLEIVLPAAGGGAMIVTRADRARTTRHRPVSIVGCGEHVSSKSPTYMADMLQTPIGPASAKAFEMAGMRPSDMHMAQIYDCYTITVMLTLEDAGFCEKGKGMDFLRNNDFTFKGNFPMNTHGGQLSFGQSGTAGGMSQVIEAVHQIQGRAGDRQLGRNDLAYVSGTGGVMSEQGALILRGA
# T2 sequence (B7X4S7 1-312 partner): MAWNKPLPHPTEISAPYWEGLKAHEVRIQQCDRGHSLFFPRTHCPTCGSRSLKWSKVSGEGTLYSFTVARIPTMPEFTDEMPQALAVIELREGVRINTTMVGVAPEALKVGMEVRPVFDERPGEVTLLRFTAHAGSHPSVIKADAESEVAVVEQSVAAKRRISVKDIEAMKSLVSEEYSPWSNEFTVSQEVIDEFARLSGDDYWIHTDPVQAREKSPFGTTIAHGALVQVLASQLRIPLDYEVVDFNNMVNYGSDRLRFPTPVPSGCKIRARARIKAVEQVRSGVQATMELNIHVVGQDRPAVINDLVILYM
# [3] = tested on: T3, C[C@H](C(O)CC(=O)SCCNC(=O)CCNC(=O)[C@H](O)C(C)(C)COP(=O)(O)OP(=O)(O)OC[C@H]1O[C@@H](n2cnc3c(N)ncnc32)[C@H](O)[C@@H]1OP(=O)(O)O)[C@H]1CC[C@H]2[C@@H]3[C@H](O)C[C@@H]4C[C@H](O)CC[C@]4(C)[C@H]3C[C@H](O)[C@]12C; experiment: purified protein; assay type: biochemical, Comamonas testosteroni; conditions: apparent, 1 mM NAD+ and 7 nM CtSad for coupling, 100 mM HEPES pH 7.5, 25 °C
# T3 construct: full-length CtShy–CtSal complex co-expressed in E. coli BL21 LOBSTR, His-tag purified; heterotetramer, 160 kDa by SEC (CtShy 35 kDa, CtSal 46 kDa); with Steroid hydratase Shy (DUF35/OB-fold and MaoC domain-containing protein)
# [4] = target: T4, CtShy–CtSal complex (CtShy steroid hydratase activity) (Comamonas testosteroni, UniProt B7X4S7); experiment: LC-MS/MS of products; Hsd4A-coupled NADH end point; assay type: biochemical; conditions: 50 mM ammonium acetate pH 7.4 (LC-MS) or 100 mM HEPES pH 7.5, 25 °C; NAD+ and excess Hsd4A
# T4 construct: gene CtesDRAFT_PD3653; full-length CtShy–CtSal complex from E. coli BL21 LOBSTR, His-tag purified; MaoC domain of CtShy is the hydratase domain; with Steroid aldolase Sal (thiolase-like protein)
# T4 sequence (B7X4S7 1-312): T2 sequence (B7X4S7 1-312 partner)
compound,measurement,setting,value
C[C@H](C(O)CC(=O)SCCNC(=O)CCNC(=O)[C@H](O)C(C)(C)COP(=O)(O)OP(=O)(O)OC[C@H]1O[C@@H](n2cnc3c(N)ncnc32)[C@H](O)[C@@H]1OP(=O)(O)O)[C@H]1CC[C@H]2[C@@H]3[C@H](O)C[C@@H]4C[C@H](O)CC[C@]4(C)[C@H]3C[C@H](O)[C@]12C (stereo partly drawn) [Cholyl-22-OH-CoA],LC-MS/MS of product; NADH formation at 340 nm,[1],Hsd4A effectively sequestered the CtShy product to form cholyl-22-oxo-CoA
same,Km,[2],8.12 ± 0.477 µM
CtShy–CtSal complex (CtSal steroid aldolase activity) (Comamonas testosteroni KF-1; R216A),Km,[3],41.4 ± 1.29 µM
same,kcat,[3],11.6 ± 0.15 s⁻¹
same,kcat/Km,[3],281000 ± 876 M⁻¹ s⁻¹
C[C@H](/C=C/C(=O)SCCNC(=O)CCNC(=O)[C@H](O)C(C)(C)COP(=O)(O)OP(=O)(O)OC[C@H]1O[C@@H](n2cnc3c(N)ncnc32)[C@H](O)[C@@H]1OP(=O)(O)O)[C@H]1CC[C@H]2[C@@H]3[C@H](O)C[C@@H]4C[C@H](O)CC[C@]4(C)[C@H]3C[C@H](O)[C@]12C [cholyl-enoyl-CoA],LC-MS/MS of products; Hsd4A-coupled NADH end point,[4],Hsd4A effectively sequestered the CtShy product to form cholyl-22-oxo-CoA
